From ChEMBL document CHEMBL3997786, “Development of Dihydroxyphenyl Sulfonylisoindoline Derivatives as Liver-Targeting Pyruvate Dehydrogenase Kinase Inhibitors” (J Med Chem, 2017)

Assays:
[1] = molecular target: T1, [Pyruvate dehydrogenase (acetyl-transferring)] kinase isozyme 2, mitochondrial (Homo sapiens, UniProt Q15119); test: Inhibition of N-terminal His6-SUMO tagged recombinant human PDK2 using [32P]-gamma-ATP assessed as decrease in incorporation of radioactivity into E1 protein incubated for 2 mins
[2] = molecular target: T1, [Pyruvate dehydrogenase (acetyl-transferring)] kinase isozyme 2, mitochondrial; test: Binding affinity to N-terminal His6-SUMO tagged recombinant human PDK2 by isothermal titration calorimetry
Liver [3] = test: Apparent clearance in CD1 mouse liver at 70 mg/kg, ip by LC-MS/MS analysis; format: ADME, organism-based; details: in vivo
[4] = AUClast in CD1 mouse muscle at 70 mg/kg, ip by LC-MS/MS analysis; format: ADME, organism-based, Muscle tissue; details: in vivo
Plasma [5] = test: Cmax in CD1 mouse plasma at 70 mg/kg, ip by LC-MS/MS analysis; format: ADME, organism-based; parameters: dose 70 mg/kg, route intraperitoneal; details: in vivo
Plasma [6] = test: Terminal half life in CD1 mouse plasma at 70 mg/kg, ip by LC-MS/MS analysis; format: ADME, organism-based; details: in vivo
[7] = Tmax in CD1 mouse muscle at 70 mg/kg, ip by LC-MS/MS analysis; format: ADME, organism-based, Muscle tissue
[8] = Terminal half life in CD1 mouse muscle at 70 mg/kg, ip by LC-MS/MS analysis; format: ADME, organism-based, Muscle tissue; details: read-out: beta t1/2
Plasma [9] = test: Tmax in CD1 mouse plasma at 70 mg/kg, ip by LC-MS/MS analysis; format: ADME, organism-based; details: in vivo
Liver [10] = test: AUClast in CD1 mouse liver at 70 mg/kg, ip by LC-MS/MS analysis; format: ADME, organism-based; details: in vivo
Liver [11] = test: Tmax in CD1 mouse liver at 70 mg/kg, ip by LC-MS/MS analysis; format: ADME, organism-based; details: in vivo
[12] = Cmax in CD1 mouse muscle at 70 mg/kg, ip by LC-MS/MS analysis; format: ADME, organism-based, Muscle tissue; parameters: dose 70 mg/kg, route intraperitoneal
[13] = Apparent clearance in CD1 mouse plasma at 70 mg/kg, ip by LC-MS/MS analysis; format: ADME, organism-based
Liver [14] = test: Apparent volume of distribution during terminal phase in CD1 mouse liver at 70 mg/kg, ip by LC-MS/MS analysis; format: ADME, organism-based; details: in vivo
Plasma [15] = test: AUClast in CD1 mouse plasma at 70 mg/kg, ip by LC-MS/MS analysis; format: ADME, organism-based; parameters: dose 70 mg/kg, route intraperitoneal, time 0 - last; details: in vivo
Liver [16] = test: Terminal half life in CD1 mouse liver at 70 mg/kg, ip by LC-MS/MS analysis; format: ADME, organism-based; details: in vivo
[17] = Apparent clearance in CD1 mouse muscle at 70 mg/kg, ip by LC-MS/MS analysis; format: ADME, organism-based, Muscle tissue; details: in vivo
Plasma [18] = test: Apparent volume of distribution during terminal phase in CD1 mouse plasma at 70 mg/kg, ip by LC-MS/MS analysis; format: ADME, organism-based; details: in vivo
Liver [19] = test: Cmax in CD1 mouse liver at 70 mg/kg, ip by LC-MS/MS analysis; format: ADME, organism-based; parameters: dose 70 mg/kg, route intraperitoneal; details: in vivo
[20] = Apparent volume of distribution during terminal phase in CD1 mouse muscle at 70 mg/kg, ip by LC-MS/MS analysis; format: ADME, organism-based, Muscle tissue; details: in vivo
[21] = molecular target: T2, [Pyruvate dehydrogenase (acetyl-transferring)] kinase isozyme 3, mitochondrial (Homo sapiens, UniProt Q15120); test: Inhibition of recombinant human PDK3 in presence of E1 protein incubated for 10 mins by titration assay
T2 sequence (Q15120 whole entry): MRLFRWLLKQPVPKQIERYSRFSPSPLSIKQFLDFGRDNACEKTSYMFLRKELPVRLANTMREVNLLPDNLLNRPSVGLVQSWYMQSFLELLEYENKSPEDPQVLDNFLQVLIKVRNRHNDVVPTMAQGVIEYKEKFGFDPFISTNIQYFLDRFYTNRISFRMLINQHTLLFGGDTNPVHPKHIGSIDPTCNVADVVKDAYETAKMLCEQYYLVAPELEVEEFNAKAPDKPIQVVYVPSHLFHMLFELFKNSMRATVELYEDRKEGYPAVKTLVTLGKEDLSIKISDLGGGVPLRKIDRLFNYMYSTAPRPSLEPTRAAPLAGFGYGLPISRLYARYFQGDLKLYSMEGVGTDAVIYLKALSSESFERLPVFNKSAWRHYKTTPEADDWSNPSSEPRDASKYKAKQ

Liver [22] = test: Terminal half life in CD1 mouse liver at 30 mg/kg, ip by LC-MS/MS analysis; format: ADME, organism-based; details: in vivo
[23] = molecular target: T3, [Pyruvate dehydrogenase (acetyl-transferring)] kinase isozyme 4, mitochondrial (Homo sapiens, UniProt Q16654); test: Inhibition of recombinant human PDK4 in presence of E1 protein and PDC core E2/E3BP incubated for 10 mins by titration assay
T3 sequence (Q16654 whole entry): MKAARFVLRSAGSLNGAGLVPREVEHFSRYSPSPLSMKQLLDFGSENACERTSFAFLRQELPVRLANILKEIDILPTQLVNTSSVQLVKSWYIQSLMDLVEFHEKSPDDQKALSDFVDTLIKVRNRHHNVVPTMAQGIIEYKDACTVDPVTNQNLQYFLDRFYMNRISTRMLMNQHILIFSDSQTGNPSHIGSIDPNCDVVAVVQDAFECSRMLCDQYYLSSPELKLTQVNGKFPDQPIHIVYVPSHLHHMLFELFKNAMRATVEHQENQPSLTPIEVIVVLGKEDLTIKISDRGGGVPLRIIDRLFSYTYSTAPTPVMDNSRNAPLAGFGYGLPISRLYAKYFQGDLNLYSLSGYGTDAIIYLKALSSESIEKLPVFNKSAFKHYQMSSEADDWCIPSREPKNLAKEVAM

[24] = molecular target: T1, [Pyruvate dehydrogenase (acetyl-transferring)] kinase isozyme 2, mitochondrial; test: Inhibition of N-terminal His6-SUMO tagged recombinant human PDK2 in presence of E1 protein and PDC core E2/E3BP incubated for 10 mins by titration assay
[25] = molecular target: T4, [Pyruvate dehydrogenase (acetyl-transferring)] kinase isozyme 1, mitochondrial (Homo sapiens, UniProt Q15118); test: Inhibition of recombinant human PDK1 in presence of E1 protein and PDC core E2/E3BP incubated for 10 mins by titration assay
T4 sequence (Q15118 whole entry): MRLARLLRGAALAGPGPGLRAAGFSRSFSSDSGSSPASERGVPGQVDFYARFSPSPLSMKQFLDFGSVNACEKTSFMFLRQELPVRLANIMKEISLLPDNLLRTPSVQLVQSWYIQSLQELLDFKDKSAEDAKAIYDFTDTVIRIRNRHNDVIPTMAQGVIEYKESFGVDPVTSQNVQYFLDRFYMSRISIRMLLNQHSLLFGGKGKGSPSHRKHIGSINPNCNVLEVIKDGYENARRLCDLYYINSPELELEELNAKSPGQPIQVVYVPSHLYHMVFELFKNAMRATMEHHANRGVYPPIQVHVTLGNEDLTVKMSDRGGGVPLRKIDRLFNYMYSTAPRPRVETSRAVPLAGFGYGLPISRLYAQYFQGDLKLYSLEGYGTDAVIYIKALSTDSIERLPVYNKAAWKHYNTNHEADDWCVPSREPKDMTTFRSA

[26] = Tmax in CD1 mouse muscle at 30 mg/kg, ip by LC-MS/MS analysis; format: ADME, organism-based, Muscle tissue
Plasma [27] = test: Apparent volume of distribution during terminal phase in CD1 mouse plasma at 30 mg/kg, ip by LC-MS/MS analysis; format: ADME, organism-based; details: in vivo
[28] = Tmax in CD1 mouse plasma at 30 mg/kg, ip by LC-MS/MS analysis; format: ADME, organism-based
[29] = Apparent clearance in CD1 mouse muscle at 30 mg/kg, ip by LC-MS/MS analysis; format: ADME, organism-based, Muscle tissue; details: in vivo
[30] = molecular target: T4, [Pyruvate dehydrogenase (acetyl-transferring)] kinase isozyme 1, mitochondrial; test: Inhibition of recombinant human PDK1 in presence of E1 protein incubated for 10 mins by titration assay
[31] = Cmax in CD1 mouse muscle at 30 mg/kg, ip by LC-MS/MS analysis; format: ADME, organism-based, Muscle tissue; parameters: dose 30 mg/kg, route intraperitoneal
[32] = Apparent clearance in CD1 mouse plasma at 30 mg/kg, ip by LC-MS/MS analysis; format: ADME, organism-based
Mus musculus = test: In vivo inhibition of PDK in DIO C57BL/6J mouse assessed as increase in PDC activity in liver at 40 to 45 mg/kg/day administered through mini osmotic pump for 2 weeks relative to control; format: functional
Liver [33] = test: Apparent volume of distribution during terminal phase in CD1 mouse liver at 30 mg/kg, ip by LC-MS/MS analysis; format: ADME, organism-based; details: in vivo
Plasma [34] = test: Terminal half life in CD1 mouse plasma at 30 mg/kg, ip by LC-MS/MS analysis; format: ADME, organism-based; details: in vivo
[35] = molecular target: T3, [Pyruvate dehydrogenase (acetyl-transferring)] kinase isozyme 4, mitochondrial; test: Inhibition of recombinant human PDK4 in presence of E1 protein incubated for 10 mins by titration assay
[36] = Terminal half life in CD1 mouse muscle at 30 mg/kg, ip by LC-MS/MS analysis; format: ADME, organism-based, Muscle tissue; details: read-out: beta t1/2
Plasma [37] = test: Cmax in CD1 mouse plasma at 30 mg/kg, ip by LC-MS/MS analysis; format: ADME, organism-based; parameters: dose 30 mg/kg, route intraperitoneal; details: in vivo
[38] = molecular target: T2, [Pyruvate dehydrogenase (acetyl-transferring)] kinase isozyme 3, mitochondrial; test: Inhibition of recombinant human PDK3 in presence of E1 protein and PDC core E2/E3BP incubated for 10 mins by titration assay
Liver [39] = test: Tmax in CD1 mouse liver at 30 mg/kg, ip by LC-MS/MS analysis; format: ADME, organism-based; details: in vivo
[40] = AUClast in CD1 mouse muscle at 30 mg/kg, ip by LC-MS/MS analysis; format: ADME, organism-based, Muscle tissue; details: in vivo
Liver [41] = test: AUClast in CD1 mouse liver at 30 mg/kg, ip by LC-MS/MS analysis; format: ADME, organism-based; details: in vivo
Liver [42] = test: Cmax in CD1 mouse liver at 30 mg/kg, ip by LC-MS/MS analysis; format: ADME, organism-based; parameters: dose 30 mg/kg, route intraperitoneal; details: in vivo
Plasma [43] = test: AUClast in CD1 mouse plasma at 30 mg/kg, ip by LC-MS/MS analysis; format: ADME, organism-based; parameters: dose 30 mg/kg, route intraperitoneal, time 0 - last; details: in vivo
Liver [44] = test: Apparent clearance in CD1 mouse liver at 30 mg/kg, ip by LC-MS/MS analysis; format: ADME, organism-based; details: in vivo
[45] = Apparent volume of distribution during terminal phase in CD1 mouse muscle at 30 mg/kg, ip by LC-MS/MS analysis; format: ADME, organism-based, Muscle tissue; details: in vivo

O=S(=O)(c1ccc(O)cc1O)N1Cc2ccc(N3CCNCC3)cc2C1
IC50 [1]: 1350 nM

O=S(=O)(c1ccc(O)cc1O)N1Cc2cc(O)cc(O)c2C1
Kd [2]: 156 nM | CL/F (Liver [3]): 8.13 g/min | AUClast [4]: 885986 ng·min/g | Cmax (Plasma [5]): 29000 ng/mL | beta t1/2 (Plasma [6]): 339 min | Tmax [7]: 30 min | half-life [8]: 514 min | Tmax (Plasma [9]): 10 min | AUClast (Liver [10]): 245088 ng·min/g | IC50 [1]: 456 nM | Tmax (Liver [11]): 10 min | Cmax [12]: 17400 ng/g | CL/F [13]: 1.39 mL/min | Vz/F (Liver [14]): 1174 g | AUClast (Plasma [15]): 1494106 ng·min/mL | beta t1/2 (Liver [16]): 100 min | CL/F [17]: 2.32 g/min | Vz/F (Plasma [18]): 679 mL | Cmax (Liver [19]): 5707 ng/g | Vz/F [20]: 1720 g

O=S(=O)(c1ccc(O)cc1O)N1Cc2ccc(NC3CCN(Cc4ccccc4)CC3)cc2C1
IC50 [1]: 416 nM

NC(=O)CC[C@H](N)C(=O)N1CCC(Nc2ccc3c(c2)CN(S(=O)(=O)c2ccc(O)cc2O)C3)CC1
IC50 [1]: 72 nM

Nc1ccc2c(c1)CN(S(=O)(=O)c1ccc(O)cc1O)C2
IC50 [1]: 1180 nM

C[C@H](O)[C@H](N)C(=O)N1CCC(Nc2ccc3c(c2)CN(S(=O)(=O)c2ccc(O)cc2O)C3)CC1
IC50 [1]: 91 nM

NC(=O)C[C@H](N)C(=O)N1CC[C@H](Nc2ccc3c(c2)CN(S(=O)(=O)c2ccc(O)cc2O)C3)C1
IC50 [1]: 156 nM

NC(=O)C[C@H](N)C(=O)N1CC(Nc2ccc3c(c2)CN(S(=O)(=O)c2ccc(O)cc2O)C3)C1
IC50 [1]: 65 nM

O=C(O)c1ccccc1C(=O)N1CCC(Nc2ccc3c(c2)CN(S(=O)(=O)c2ccc(O)cc2O)C3)CC1
IC50 [1]: 565 nM

O=S(=O)(c1ccc(O)cc1O)N1Cc2ccc(NC3CCCCC3)cc2C1
IC50 [1]: 1200 nM

NC(=O)C[C@H](N)C(=O)N1CCN(c2ccc3c(c2)CN(S(=O)(=O)c2ccc(O)cc2O)C3)CC1
IC50 [1]: 767 nM

O=C(O)CC(=O)N1CCC(Nc2ccc3c(c2)CN(S(=O)(=O)c2ccc(O)cc2O)C3)CC1
IC50 [1]: 1660 nM

O=S(=O)(c1ccc(O)cc1O)N1Cc2ccc(NC3CCNCC3)cc2C1
Kd [2]: 110 nM | IC50 [1]: 195 nM

O=S(=O)(c1ccc(O)cc1O)N1Cc2ccc(O)cc2C1
IC50 [1]: 570 nM

NC(=O)C[C@H](N)C(=O)NCCCNc1ccc2c(c1)CN(S(=O)(=O)c1ccc(O)cc1O)C2
IC50 [1]: 67 nM

NC(=O)C[C@H](N)C(=O)N1CCC(Nc2ccc3c(c2)CN(S(=O)(=O)c2ccc(O)cc2O)C3)CC1
Kd [2]: 22 nM | IC50 [21]: 45800 nM | beta t1/2 (Liver [22]): 303 min | IC50 [23]: 416 nM | IC50 [24]: 81 nM | IC50 [25]: 2060 nM | Tmax [26]: 10 min | IC50 [1]: 58 nM | Vz/F (Plasma [27]): 1289 mL | Tmax [28]: 10 min | CL/F [29]: 8.64 g/min | IC50 [30]: 2540 nM | Cmax [31]: 2420 ng/g | CL/F [32]: 3.11 mL/min | fold change (FC) (Mus musculus): 6 | Vz/F (Liver [33]): 116 g | beta t1/2 (Plasma [34]): 288 min | IC50 [35]: 284 nM | half-life [36]: 324 min | Cmax (Plasma [37]): 5443 ng/mL | IC50 [38]: 1710 nM | Tmax (Liver [39]): 30 min | AUClast [40]: 83083 ng·min/g | AUClast (Liver [41]): 2682301 ng·min/g | Cmax (Liver [42]): 18767 ng/g | AUClast (Plasma [43]): 234088 ng·min/mL | CL/F (Liver [44]): 0.266 g/min | Vz/F [45]: 4043 g

NCCCC[C@H](N)C(=O)N1CCC(Nc2ccc3c(c2)CN(S(=O)(=O)c2ccc(O)cc2O)C3)CC1
IC50 [1]: 580 nM

NC(=O)C[C@H](N)C(=O)N1CC[C@@H](Nc2ccc3c(c2)CN(S(=O)(=O)c2ccc(O)cc2O)C3)C1
IC50 [1]: 221 nM

O=S(=O)(c1ccc(O)cc1O)N1Cc2ccc(NC3CCN(CC(O)CO)CC3)cc2C1 (stereo not drawn)
IC50 [1]: 154 nM

O=C(C1C[C@@H](O)C(O)[C@H](O)C1)N1CCC(Nc2ccc3c(c2)CN(S(=O)(=O)c2ccc(O)cc2O)C3)CC1 (stereo partly drawn)
IC50 [1]: 432 nM

O=C(O)CCCCC(=O)N1CCC(Nc2ccc3c(c2)CN(S(=O)(=O)c2ccc(O)cc2O)C3)CC1
IC50 [1]: 1610 nM

N[C@@H](CO)C(=O)N1CCC(Nc2ccc3c(c2)CN(S(=O)(=O)c2ccc(O)cc2O)C3)CC1
IC50 [1]: 68 nM

O=C(O)CCCCCCCC(=O)N1CCC(Nc2ccc3c(c2)CN(S(=O)(=O)c2ccc(O)cc2O)C3)CC1
IC50 [1]: 629 nM

NC(=O)C[C@H](N)C(=O)N1CCCN(c2ccc3c(c2)CN(S(=O)(=O)c2ccc(O)cc2O)C3)CC1
IC50 [1]: 1510 nM

NC(=O)C[C@H](N)C(=O)NCCNc1ccc2c(c1)CN(S(=O)(=O)c1ccc(O)cc1O)C2
IC50 [1]: 357 nM

O=S(=O)(c1ccc(O)cc1O)N1Cc2ccc(N3CCCCC3)cc2C1
IC50 [1]: 4370 nM
